Measurements as given in ChEMBL document CHEMBL1201862, “PubChem BioAssay data set” (2004).
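48-hour exposure; five concentrations; linearly interpolated endpoints. At the GI50, growth is halved.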 Activity calls are given as the source filed them. Cut-off read from the data, not from the text of the source: active = GI50 up to about 1.1 µM and inactive = higher.

Tests used:
Assay in all cases: NCI-60 cell line screen, 48 h
CAKI-1 = tested on: CAKI-1
A549 = tested on: A549
MDA-MB-435 = tested on: MDA-MB-435
NCI-H226 = tested on: NCI-H226
SNB-75 = tested on: SNB-75
OVCAR-3 = tested on: OVCAR-3
BT-549 = tested on: BT-549
SF-268 = tested on: SF-268
A498 = tested on: A498
KM12 = tested on: KM12
LOX IMVI = tested on: LOX IMVI
SK-OV-3 = tested on: SK-OV-3
IGROV-1 = tested on: IGROV-1
HOP-62 = tested on: HOP-62
HCC 2998 = tested on: HCC 2998
MCF7 = tested on: MCF7
PC-3 = tested on: PC-3
HL-60 = tested on: HL-60
SW-620 = tested on: SW-620
HCT-116 = tested on: HCT-116
HOP-92 = tested on: HOP-92
NCI-H23 = tested on: NCI-H23
DU-145 = tested on: DU-145
MOLT-4 = tested on: MOLT-4
OVCAR-4 = tested on: OVCAR-4
786-0 = tested on: 786-0
SF-295 = tested on: SF-295
MDA-MB-231 = tested on: MDA-MB-231
M14 = tested on: M14
UACC-62 = tested on: UACC-62
NCI/ADR-RES = tested on: NCI/ADR-RES
T47D = tested on: T47D
U-251 = tested on: U-251
OVCAR-5 = tested on: OVCAR-5
RXF 393 = tested on: RXF 393
MDA-N = tested on: MDA-N
CCRF-CEM = tested on: CCRF-CEM
COLO 205 = tested on: COLO 205
UACC-257 = tested on: UACC-257
K562 = tested on: K562
TK-10 = tested on: TK-10
RPMI-8226 = tested on: RPMI-8226
UO-31 = tested on: UO-31
SK-MEL-28 = tested on: SK-MEL-28
Malme-3M = tested on: Malme-3M
ACHN = tested on: ACHN
SK-MEL-5 = tested on: SK-MEL-5
SK-MEL-2 = tested on: SK-MEL-2
EKVX = tested on: EKVX
Hs-578T = tested on: Hs-578T
HT-29 = tested on: HT-29
HCT-15 = tested on: HCT-15
OVCAR-8 = tested on: OVCAR-8
SN12C = tested on: SN12C
SNB-19 = tested on: SNB-19

CN1C(=O)N/C(=C\c2ccc(S(=O)(=O)NN)cc2)C1=O was tested, and the GI50 (CAKI-1) was > 100 µM (inactive), the GI50 (A549) was > 100 µM (inactive) and the GI50 (MDA-MB-435) was > 100 µM (inactive). The GI50 (NCI-H226) was > 100 µM (inactive), the GI50 (SNB-75) was > 100 µM (inactive) and the GI50 (OVCAR-3) was > 100 µM (inactive). For the same compound, the GI50 (BT-549) was > 100 µM (inactive), the GI50 (SF-268) was > 100 µM (inactive) and the GI50 (A498) was > 100 µM (inactive). The GI50 (KM12) was > 100 µM (inactive), the GI50 (LOX IMVI) was > 100 µM (inactive) and the GI50 (SK-OV-3) was > 100 µM (inactive). The GI50 (IGROV-1) was > 100 µM (inactive), the GI50 (HOP-62) was > 100 µM (inactive) and the GI50 (HCC 2998) was > 100 µM (inactive). The GI50 (MCF7) was > 100 µM (inactive), the GI50 (PC-3) was > 100 µM (inactive) and the GI50 (HL-60) was > 100 µM (inactive). The GI50 (SW-620) was > 100 µM (inactive), the GI50 (HCT-116) was > 100 µM (inactive) and the GI50 (HOP-92) was > 100 µM (inactive). The GI50 (NCI-H23) was > 100 µM (inactive), the GI50 (DU-145) was > 100 µM (inactive) and the GI50 (MOLT-4) was > 100 µM (inactive). The GI50 (OVCAR-4) was > 100 µM (inactive), the GI50 (786-0) was > 100 µM (inactive) and the GI50 (SF-295) was > 100 µM (inactive). For the same compound, the GI50 (MDA-MB-231) was > 100 µM (inactive), the GI50 (M14) was > 100 µM (inactive) and the GI50 (UACC-62) was > 100 µM (inactive). For the same compound, the GI50 (NCI/ADR-RES) was > 100 µM (inactive), the GI50 (T47D) was > 100 µM (inactive) and the GI50 (U-251) was > 100 µM (inactive). The GI50 (OVCAR-5) was > 100 µM (inactive), the GI50 (RXF 393) was > 100 µM (inactive) and the GI50 (MDA-N) was > 100 µM (inactive). For the same compound, the GI50 (CCRF-CEM) was > 100 µM (inactive), the GI50 (COLO 205) was > 100 µM (inactive) and the GI50 (UACC-257) was > 100 µM (inactive). For the same compound, the GI50 (K562) was > 100 µM (inactive), the GI50 (TK-10) was > 100 µM (inactive) and the GI50 (RPMI-8226) was > 100 µM (inactive). The GI50 (UO-31) was > 100 µM (inactive), the GI50 (SK-MEL-28) was > 100 µM (inactive) and the GI50 (Malme-3M) was > 100 µM (inactive). For the same compound, the GI50 (ACHN) was > 100 µM (inactive), the GI50 (SK-MEL-5) was > 100 µM (inactive) and the GI50 (SK-MEL-2) was > 100 µM (inactive). The GI50 (EKVX) was > 100 µM (inactive), the GI50 (Hs-578T) was > 100 µM (inactive) and the GI50 (HT-29) was > 100 µM (inactive). The GI50 (HCT-15) was > 100 µM, the GI50 (OVCAR-8) was > 100 µM (inactive) and the GI50 (SN12C) was > 100 µM (inactive). For the same compound, the GI50 (SNB-19) was > 100 µM (inactive).
